Activity calls are given as the source filed them. No rule for the calls is given here.
Each compound was assayed against Ubiquitin-conjugating enzyme E2 N (Homo sapiens) (UniProt P61088) (assay: UBE2N binders by NMR, biophysical, purified protein (AID 1552)). Details: NMR binding to purified UBE2N.
Sequence of Ubiquitin-conjugating enzyme E2 N (Homo sapiens) (P61088 whole entry, looked up): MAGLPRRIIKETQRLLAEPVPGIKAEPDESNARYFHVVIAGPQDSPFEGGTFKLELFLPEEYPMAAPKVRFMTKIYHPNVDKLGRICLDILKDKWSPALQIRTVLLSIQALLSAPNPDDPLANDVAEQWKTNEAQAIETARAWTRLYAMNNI
In the case of `Cn1cnc2nc3n(c2c1=O)CCC3`, the Kd is reported as > 4 mM (inactive).
`CCOC(=O)Cn1cnc2c1c(=O)[nH]c(=O)n2C` was tested, and the Kd was > 4 mM (inactive).
With `Cc1occc1C(=O)NC1CCN(C)CC1` the Kd was > 4 mM (inactive).
`O=C1C2CC=CCC2C(=O)N1c1cccc(O)c1` (stereo not given) was tested, and the Kd was > 4 mM (inactive).
For `C[C@]12CCC3C(CC[C@]4(O)C[C@@H](O)CC[C@]34C=O)[C@@]1(O)CCC2C1=CC(=O)OC1` (stereo not given in full), the Kd was > 4 mM (inactive).
For `Nc1ncnc(NCCOCCO)c1[N+](=O)[O-]`, the Kd was > 4 mM (inactive).
In the case of `CS(=O)(=O)c1nncn1-c1ccccc1`, the Kd is reported as > 4 mM (inactive).
For `CCN1C(=O)c2c(C)nc3ccccc3c2C1=O`, the Kd was > 4 mM (inactive).
`CC(=O)N1N=C(N)SC1c1cccnc1` (stereo not given) was tested, and the Kd was > 4 mM (inactive).
In the case of `Cc1cc(N)on1`, the Kd is reported as > 4 mM (inactive).
`O=C1C[C@@H](c2ccccc2)Oc2cc(O)cc(O)c21` was tested, and the Kd was > 4 mM (inactive).
In the case of `C=C1C([C@]2(C)C(CC(=O)OC)[C@@](C)(COC(C)=O)OC(=O)C[C@@H]2OC(C)=O)[C@@H](OC=O)[C@H](OC(=O)C(O)C(C)CC)[C@@]2(C)[C@H](c3ccoc3)CC(=O)C12O` (stereo not given in full), the Kd is reported as > 4 mM (inactive).
In the case of `Cc1nc2nc(Cc3ccccc3)[nH]n2c(=O)c1Cl`, the Kd is reported as > 4 mM (inactive).
In the case of `O=S1(=O)CCC(N2CCCCC2)C1` (stereo not given), the Kd is reported as > 4 mM (inactive).
`c1ccc(Cn2c(Nn3cnnc3)nc3ccccc32)cc1` was tested, and the Kd was > 4 mM (inactive).
For `O=C1C2C3C=CC(C3)C2C(=O)N1c1ccccn1` (stereo not given), the Kd was > 4 mM (inactive).
In the case of `CNC(=O)c1ccccc1N`, the Kd is reported as > 4 mM (inactive).
In the case of `CC(C)=CCCC1(C)C=Cc2c(O)c3c(c(CC=C(C)C)c2O1)OC12C(=CC4CC1C(C)(C)OC2(C/C=C(/C)C(=O)O)C4=O)C3=O` (stereo not given), the Kd is reported as > 4 mM (inactive).
`CS(=O)(=O)N1CCC(C(=O)NC2CCCC2)CC1` was tested, and the Kd was > 4 mM (inactive).
In the case of `C=CCn1c(=S)[nH]c2ccc(Br)cc2c1=O`, the Kd is reported as > 4 mM (inactive).
`c1ccc(-c2csc3ncn4nnnc4c23)cc1` was tested, and the Kd was > 4 mM (inactive).
With `COC(=O)CC1=Nc2ccccc2NC(=O)C1` the Kd was > 4 mM (inactive).
In the case of `c1ccc(Cc2nnc(-c3ccccc3)o2)cc1`, the Kd is reported as > 4 mM (inactive).
`Nc1nc(-c2cccnc2)nn1C(=O)Cc1ccccc1` was tested, and the Kd was > 4 mM (inactive).
With `CC1(C)C2CC(=O)[C@]3(C)C(CC[C@@]4(C)[C@H](c5ccoc5)OC(=O)[C@H]5O[C@]543)[C@@]2(C)C=C[C@@H]1O` (stereo not given in full) the Kd was > 4 mM (inactive).
`O=C(O)CCCCCCCCCCCCC1C=CCC1` (stereo not given) was tested, and the Kd was > 4 mM (inactive).
`OCC12COC3c4ccccc4C(OC1)N32` (stereo not given) was tested, and the Kd was > 4 mM (inactive).
In the case of `O=C(O)CCn1cncn1`, the Kd is reported as > 4 mM (inactive).
With `O=C(CSC1=NCCS1)N1CCc2ccccc21` the Kd was > 4 mM (inactive).
For `CC(=O)Nc1cccc(NC(=O)c2ccco2)c1`, the Kd was > 4 mM (inactive).
`O=C(C1CCCCC1)N1CCN(c2ccccc2F)CC1` was tested, and the Kd was > 4 mM (inactive).
For `COc1ccc(C2CC(=O)NN2)cc1OC1CCCC1` (stereo not given), the Kd was > 4 mM (inactive).
With `NC(=O)CC(=O)NC12CC3CC(CC(C3)C1)C2` the Kd was > 4 mM (inactive).
For `O=C(O)c1csc(-c2cccs2)n1`, the Kd was > 4 mM (inactive).
In the case of `Cc1occc1C(=O)Nc1ccc2c(c1)OCO2`, the Kd is reported as > 4 mM (inactive).
In the case of `CN1CCCC1C(=O)O` (stereo not given), the Kd is reported as > 4 mM (inactive).
In the case of `CCN(CC)S(=O)(=O)c1ccc(F)cc1`, the Kd is reported as > 4 mM (inactive).
For `O=c1nc(N2CCOCC2)nc2n1CCO2`, the Kd was > 4 mM (inactive).
In the case of `O=c1[nH]cc(Nc2ccccc2)c(=O)[nH]1`, the Kd is reported as > 4 mM (inactive).
`C/C=C(\C)c1nnc(NC(=O)C(C)C)s1` was tested, and the Kd was > 4 mM (inactive).
For `COc1cc2c(cc1OC)C1Cc3ccc(OC)c(OC)c3CN1CC2` (stereo not given), the Kd was > 4 mM (inactive).
In the case of `Cc1ccc(SCC(=O)N2CCOCC2)cc1`, the Kd is reported as > 4 mM (inactive).
For `O=C(O)c1ccc(Nc2nncc(=O)[nH]2)cc1`, the Kd was > 4 mM (inactive).
In the case of `N#Cc1nc(-c2ccccc2Cl)oc1N1CCOCC1`, the Kd is reported as > 4 mM (inactive).
For `COn1c(=O)c(C)[n+]([O-])c2ccccc21`, the Kd was > 4 mM (inactive).
With `CC(=O)Nc1cccc(Cn2cccn2)c1` the Kd was > 4 mM (inactive).
For `S=C1NC(=S)NC(c2ccc3c(c2)OCO3)N1`, the Kd was > 4 mM (inactive).
In the case of `CC(=O)OCC(=O)[C@@]1(O)CCC2C3CC[C@@H]4C[C@H](OC(C)=O)CC[C@]4(C)C3C(=O)C[C@@]21C` (stereo not given in full), the Kd is reported as > 4 mM (inactive).
For `COc1cc2c(cc1O)CC1c3c(cc(O)c(OC)c3-2)CCN1C` (stereo not given), the Kd was > 4 mM (inactive).
With `Cc1nn2c(nc1=O)SCC2(O)c1ccccc1` (stereo not given) the Kd was > 4 mM (inactive).
`COCc1nn2c(N)c(C#N)cnc2c1-c1ccccc1` was tested, and the Kd was > 4 mM (inactive).
In the case of `S=C(NC1CC1)NN1CCOCC1`, the Kd is reported as > 4 mM (inactive).
For `COC(=O)c1c(C)c2c(c(C)c1O)OC(=O)c1c(C)c(Cl)c(O)c(Cl)c1O2`, the Kd was > 4 mM (inactive).
With `Cc1cc(N)n(-c2ccccc2)n1` the Kd was > 4 mM (inactive).
With `Cn1c(CO)nc2cc(N)ccc21` the Kd was > 4 mM (inactive).
In the case of `COc1ccc2c(c1)O[C@@H]1COc3cc(OC)c(OC)cc3[C@@H]1C2=O`, the Kd is reported as > 4 mM (inactive).
For `CC(=O)O[C@H]1C[C@@H](OC(C)=O)C(C)(C)C2C[C@@H](OC(C)=O)[C@]3(C)C(CC[C@@]4(C)[C@H](c5ccoc5)OC(=O)[C@H]5O[C@]543)[C@]21C` (stereo not given in full), the Kd was > 4 mM (inactive).
`COC(=O)Cc1cc(=O)n(-c2nc3ccccc3s2)[nH]1` was tested, and the Kd was > 4 mM (inactive).
In the case of `C=C1CCC(=O)C(C)CCC2C1CC2(C)C` (stereo not given), the Kd is reported as > 4 mM (inactive).
In the case of `NS(=O)(=O)c1ccc(NC(=O)C2CC2)cc1`, the Kd is reported as > 4 mM (inactive).
With `CCCCCCCCCCCC1=C(O)C(=O)C=C(O)C1=O` the Kd was > 4 mM (inactive).
With `CCOC(=O)Cc1cc(=O)n2[nH]c(C)cc2n1` the Kd was > 4 mM (inactive).
For `CNC(=O)C1CC(=O)N(c2ccc(O)cc2)C1` (stereo not given), the Kd was > 4 mM (inactive).
In the case of `CC1(C)NC(=O)N(CCOc2ccc3c(c2)CCC3)C1=O`, the Kd is reported as > 4 mM (inactive).
`CCOC(=O)CC1NCCNC1=O` (stereo not given) was tested, and the Kd was > 4 mM (inactive).
In the case of `CN(C(N)=O)C1(C)CCS(=O)(=O)C1` (stereo not given), the Kd is reported as > 4 mM (inactive).
With `Cc1[nH]c2ccccc2c1C=Nn1cncn1` the Kd was > 4 mM (inactive).
For `CC(=O)Nc1ccccc1OCC(N)=O`, the Kd was > 4 mM (inactive).
For `Cc1ccc2nc(NC(=O)CN3CCOCC3)sc2c1`, the Kd was > 4 mM (inactive).
With `O=S1(=O)NC(=NCc2ccccc2)c2ccccc21` the Kd was > 4 mM (inactive).
`O=C(O)CNC(=O)c1ccccc1` was tested, and the Kd was > 4 mM (inactive).
`COc1ccc(C(=O)/C=C2\NC(=S)NC2=O)cc1` was tested, and the Kd was > 4 mM (inactive).
With `CC12CCC(O)CC1CCC1C2[C@H](O)CC2(C)C(C3=CC(=O)OC3)CCC12O` (stereo not given in full) the Kd was > 4 mM (inactive).
With `Cc1cc(C)nc(/N=C(/N)N2CCOCC2)n1` the Kd was > 4 mM (inactive).
`COc1c(F)c(F)c(-c2csc(N)n2)c(F)c1F` was tested, and the Kd was > 4 mM (inactive).
In the case of `O=c1[nH]cc(N2CCCCC2)c(=O)[nH]1`, the Kd is reported as > 4 mM (inactive).
With `O=C(NC1CCS(=O)(=O)C1)c1cccs1` (stereo not given) the Kd was > 4 mM (inactive).
`O=C1c2ccncc2C(=O)N1CNc1ccccn1` was tested, and the Kd was > 4 mM (inactive).
For `Cc1ccccc1C(=O)Nc1cccc(N)c1`, the Kd was > 4 mM (inactive).
`Cc1nnc(NC(=O)C(C)Sc2nncn2C)s1` (stereo not given) was tested, and the Kd was > 4 mM (inactive).
For `CC(=O)O[C@H]1CCC2(C)C3=C(CCC2C1(C)C)[C@@]1(C)CC[C@@H](C(C)CCC=C(C)C)[C@]1(C)CC3` (stereo not given in full), the Kd was > 4 mM (inactive).
`Cc1nn(-c2ccccc2C(=O)O)c(=O)c2ccccc12` was tested, and the Kd was > 4 mM (inactive).
With `O=C(O)c1cccc(-n2cccc2)c1` the Kd was > 4 mM (inactive).
`COc1ccc(CC(=O)c2ccc(O)cc2O)cc1` was tested, and the Kd was > 4 mM (inactive).
For `CC(C)=CC(=O)Nc1ccccc1Br`, the Kd was > 4 mM (inactive).
For `CCSc1nc(=S)n(CC)c(C)c1C(C)=O`, the Kd was > 4 mM (inactive).
`C=C1C(N)CC2CC1C2(C)C` (stereo not given) was tested, and the Kd was > 4 mM (inactive).
With `CSc1nnc2ccc(-c3cccnc3)nn12` the Kd was > 4 mM (inactive).
For `Cc1cc(C)c(C#N)c(N2CCCC2)n1`, the Kd was > 4 mM (inactive).
`Cc1cc(C)n(-c2nc(C)nc(N)n2)n1` was tested, and the Kd was > 4 mM (inactive).
In the case of `CNC(=O)Oc1ccc2c(c1)[C@]1(C)CCN(C)[C@@H]1N2C`, the Kd is reported as > 4 mM (inactive).
For `O=C1NC(=Nc2ccccc2Cl)SC1(CO)CO`, the Kd was > 4 mM (inactive).
`CC(=O)Oc1cc2c(c(C)c1OC(C)=O)CC=C1[C@@]2(C)CC[C@@]2(C)C3C[C@](C)(C(=O)O)CC[C@]3(C)CC[C@]12C` (stereo not given in full) was tested, and the Kd was > 4 mM (inactive).
With `CC1=C(C(=O)Nc2ccccc2)SCCO1` the Kd was > 4 mM (inactive).
`CC(=O)c1cccc(NC(=O)N2CCc3ccccc3C2)c1` was tested, and the Kd was > 4 mM (inactive).
In the case of `C/C=C/C=N/NC(=O)c1ccc(=O)n(C)c1`, the Kd is reported as > 4 mM (inactive).
With `O=c1[nH]c(=O)n(-c2ccc(F)cc2)c(O)c1/C=C1/C=CC=N1` the Kd was > 4 mM (inactive).
In the case of `COc1ccc2[nH]cc(CN(C)C)c2c1`, the Kd is reported as > 4 mM (inactive).
With `COc1ccc(S(=O)(=O)Nc2ccccn2)c(C)c1C` the Kd was > 4 mM (inactive).
`Cc1n[nH]c(=S)[nH]c1=O` was tested, and the Kd was > 4 mM (inactive).
For `Cc1ccc2c(c1)CC[C@H]1CC(=O)CC[C@]21C`, the Kd was > 4 mM (inactive).
In the case of `Nc1ccc(-c2csnn2)cc1`, the Kd is reported as > 4 mM (inactive).
In the case of `COc1cc(C(C)=O)ccc1OC(=O)N1CCOCC1`, the Kd is reported as > 4 mM (inactive).
With `C(=N\n1cnnc1)/c1cccs1` the Kd was > 4 mM (inactive).
With `Cc1ccc(/C=C2/C(=O)N=C(N)N2C)s1` the Kd was > 4 mM (inactive).
With `COC(=O)c1c(OC)cc2c(c1C)Oc1c(Cl)c(O)c(Cl)c(C)c1C(=O)O2` the Kd was > 4 mM (inactive).
`CC(=O)NC1=C(N(C)C)C(=O)c2ccccc2C1=O` was tested, and the Kd was > 4 mM (inactive).
`NCc1c[nH]c2ccccc12` was tested, and the Kd was > 4 mM (inactive).
With `Cc1cc(O)c(C)c(O)c1C(=O)O` the Kd was > 4 mM (inactive).
`COCC(=O)Nc1ccc(C)c(Cl)c1` was tested, and the Kd was > 4 mM (inactive).
`Cc1cc(OC(=O)c2c(C)cc(O)cc2O)cc(O)c1C(=O)O` was tested, and the Kd was > 4 mM (inactive).
`COC(=O)C1=C(C)N(c2cccc(C(C)=O)c2)C(=O)C1` was tested, and the Kd was > 4 mM (inactive).
In the case of `O=c1cc(-c2ccccc2)oc2c(O)c(O)ccc12`, the Kd is reported as > 4 mM (inactive).
For `O=C(O)c1cccc2nsnc12`, the Kd was > 4 mM (inactive).
`OCc1c[nH]c2ccccc12` was tested, and the Kd was > 4 mM (inactive).

— PubChem BioAssay AID1552 (Sanford-Burnham Center for Chemical Genomics, 2009)
